Experimental data from patent US6914045B2, “Glycopeptide antibiotics” (Wyeth Holdings Corporation, priority 2001, dated 2005).
In brackets after ≈: the same amount, converted by molar mass.

Legend:
Assay in all cases: in vitro antibacterial evaluation, MIC by broth dilution
Assay type in all cases: cell-based
Enterococcus sp. = settings: broth dilution, 18 hours at 35° C.
Method in brief: (§1)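 Broth dilution per NCCLS M7-A2 in Mueller-Hinton II medium, inoculum 5×10^5 CFU/mL, antibiotic range 64-0.06 μg/mL. MIC taken as lowest concentration inhibiting growth; Gram-positive panel includes recent clinical isolates resistant to methicillin, penicillin and/or vancomycin.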

Staphylococcus sp. = settings: broth dilution, 18 hours at 35° C.; for MIC Staphylococcus aureus (GC 1131): strain GC 1131
Method in brief: as §1

Streptococcus sp. = settings: broth dilution, 18 hours at 35° C.
Method in brief: as §1

Escherichia coli = settings: 18 hours at 35° C.

**Q.** For CCCC(C)C1OCC2OC(OC3C(CO)OC(Oc4ccc(CC5NC(=O)C(C(C)c6ccc(Cl)cc6)NC(=O)CNC(=O)C(CO)NC(=O)C(C(O)C6CNC(=N)N6C6OC(CO)C(O)C(O)C6O)NC(=O)C(C(O)C6CNC(=N)N6)NC5=O)cc4)C(O)C3O)C(O)C(O)C2O1 (stereo not shown) [Example 194], which “MIC Enterococcus avium (GC 4558)” value (Enterococcus sp.) is on record?
**A.** 2 µg/mL (≈ 1.42 µM)

**Q.** What about the “MIC Enterococcus faecalis (ATCC 29212)” value (Enterococcus sp.) of the same molecule?
**A.** 2 µg/mL (≈ 1.42 µM)

**Q.** What about the “MIC Enterococcus faecalis (GC 2242)” value (Enterococcus sp.) of the same molecule?
**A.** 1 µg/mL (≈ 0.708 µM)

**Q.** What about the “MIC Enterococcus faecalis (GC 2691)” value (Enterococcus sp.) of the same molecule?
**A.** 2 µg/mL (≈ 1.42 µM)

**Q.** And the “MIC Enterococcus faecalis (GC 3059)” value (Enterococcus sp.)?
**A.** 1 µg/mL (≈ 0.708 µM)

**Q.** What about the “MIC Enterococcus faecalis (GC 4552)” value (Enterococcus sp.) of the same molecule?
**A.** 1 µg/mL (≈ 0.708 µM)

**Q.** What about the “MIC Enterococcus faecalis (GC 4553)” value (Enterococcus sp.) of the same molecule?
**A.** 2 µg/mL (≈ 1.42 µM)

**Q.** What about the “MIC Enterococcus faecalis (GC 4554)” value (Enterococcus sp.) of the same molecule?
**A.** 1 µg/mL (≈ 0.708 µM)

**Q.** What about the “MIC Enterococcus faecalis (GC 6189)” value (Enterococcus sp.) of the same molecule?
**A.** 0.5 µg/mL (≈ 0.354 µM)

**Q.** What about the “MIC Enterococcus faecium (GC 2243)” value (Enterococcus sp.) of the same molecule?
**A.** 1 µg/mL (≈ 0.708 µM)

**Q.** What about the “MIC Enterococcus faecium (GC 4556)” value (Enterococcus sp.) of the same molecule?
**A.** 1 µg/mL (≈ 0.708 µM)

**Q.** And the “MIC Enterococcus faecium (GC 4557)” value (Enterococcus sp.)?
**A.** 2 µg/mL (≈ 1.42 µM)

**Q.** And the “MIC Enterococcus faecalis (ATCC 29212)” value (Enterococcus sp.; inoculum 5×10^5 CFU/mL, strain ATCC 29212)?
**A.** 2 µg/mL (≈ 1.42 µM)

**Q.** What about the “MIC Enterococcus faecalis (GC 2242)” value (Enterococcus sp.; inoculum 5×10^5 CFU/mL, strain GC 2242) of the same molecule?
**A.** 1 µg/mL (≈ 0.708 µM)

**Q.** And the “MIC Enterococcus faecium (GC 2243)” value (Enterococcus sp.; inoculum 5×10^5 CFU/mL, strain GC 2243)?
**A.** 1 µg/mL (≈ 0.708 µM)

**Q.** And the “MIC Enterococcus faecalis (GC 2691)” value (Enterococcus sp.; inoculum 5×10^5 CFU/mL, strain GC 2691)?
**A.** 2 µg/mL (≈ 1.42 µM)

**Q.** And the “MIC Enterococcus faecalis (GC 3059)” value (Enterococcus sp.; inoculum 5×10^5 CFU/mL, strain GC 3059)?
**A.** 1 µg/mL (≈ 0.708 µM)

**Q.** What about the “MIC Enterococcus faecalis (GC 4552)” value (Enterococcus sp.; inoculum 5×10^5 CFU/mL, strain GC 4552) of the same molecule?
**A.** 1 µg/mL (≈ 0.708 µM)

**Q.** What about the “MIC Enterococcus faecalis (GC 4553)” value (Enterococcus sp.; inoculum 5×10^5 CFU/mL, strain GC 4553) of the same molecule?
**A.** 2 µg/mL (≈ 1.42 µM)

**Q.** What about the “MIC Enterococcus faecalis (GC 4554)” value (Enterococcus sp.; inoculum 5×10^5 CFU/mL, strain GC 4554) of the same molecule?
**A.** 1 µg/mL (≈ 0.708 µM)

**Q.** What about the “MIC Enterococcus faecium (GC 4556)” value (Enterococcus sp.; inoculum 5×10^5 CFU/mL, strain GC 4556) of the same molecule?
**A.** 1 µg/mL (≈ 0.708 µM)

**Q.** And the “MIC Enterococcus faecium (GC 4557)” value (Enterococcus sp.; inoculum 5×10^5 CFU/mL, strain GC 4557)?
**A.** 2 µg/mL (≈ 1.42 µM)

**Q.** What about the “MIC Enterococcus avium (GC 4558)” value (Enterococcus sp.; inoculum 5×10^5 CFU/mL, strain GC 4558) of the same molecule?
**A.** 2 µg/mL (≈ 1.42 µM)

**Q.** What about the “MIC Enterococcus faecalis (GC 6189)” value (Enterococcus sp.; inoculum 5×10^5 CFU/mL, strain GC 6189) of the same molecule?
**A.** 0.5 µg/mL (≈ 0.354 µM)

**Q.** What about the “MIC Staphylococcus aureus (GC 1131)” value (Staphylococcus sp.; inoculum 5×10^5 CFU/mL) of the same molecule?
**A.** 1 µg/mL (≈ 0.708 µM)

**Q.** What about the “MIC Staphylococcus aureus (ATCC 29213)” value (Staphylococcus sp.; strain ATCC 29213) of the same molecule?
**A.** 0.5 µg/mL (≈ 0.354 µM)

**Q.** And the “MIC Staphylococcus aureus (GC 1131)” value (Staphylococcus sp.)?
**A.** 1 µg/mL (≈ 0.708 µM)

**Q.** And the “MIC Staphylococcus aureus (GC 3051)” value (Staphylococcus sp.; strain GC 3051)?
**A.** 1 µg/mL (≈ 0.708 µM)

**Q.** And the “MIC Staphylococcus aureus (GC 3053)” value (Staphylococcus sp.; strain GC 3053)?
**A.** 1 µg/mL (≈ 0.708 µM)

**Q.** And the “MIC Staphylococcus aureus (GC 4541)” value (Staphylococcus sp.; strain GC 4541)?
**A.** 0.5 µg/mL (≈ 0.354 µM)

**Q.** And the “MIC Staphylococcus aureus (GC 4542)” value (Staphylococcus sp.; strain GC 4542)?
**A.** 0.5 µg/mL (≈ 0.354 µM)

**Q.** And the “MIC Staphylococcus aureus-SMITH (GC 4543)” value (Staphylococcus sp.; strain GC 4543)?
**A.** 0.5 µg/mL (≈ 0.354 µM)

**Q.** And the “MIC Staphylococcus aureus (GC 4544)” value (Staphylococcus sp.; strain GC 4544)?
**A.** 2 µg/mL (≈ 1.42 µM)

**Q.** What about the “MIC Staphylococcus aureus (GC 4545)” value (Staphylococcus sp.; strain GC 4545) of the same molecule?
**A.** 1 µg/mL (≈ 0.708 µM)

**Q.** And the “MIC Staphylococcus haemolyticus (GC 4546)” value (Staphylococcus sp.; strain GC 4546)?
**A.** 0.5 µg/mL (≈ 0.354 µM)

**Q.** What about the “MIC Coagulase Negative Staphylococcus (GC 4547)” value (Staphylococcus sp.; strain GC 4547) of the same molecule?
**A.** 1 µg/mL (≈ 0.708 µM)

**Q.** What about the “MIC Coagulase Negative Staphylococcus (GC 4548)” value (Staphylococcus sp.; strain GC 4548) of the same molecule?
**A.** 0.5 µg/mL (≈ 0.354 µM)

**Q.** And the “MIC Coagulase Negative Staphylococcus (GC 4549)” value (Staphylococcus sp.; strain GC 4549)?
**A.** 0.5 µg/mL (≈ 0.354 µM)

**Q.** What about the “MIC Coagulase Negative Staphylococcus (GC 4551)” value (Staphylococcus sp.; strain GC 4551) of the same molecule?
**A.** 1 µg/mL (≈ 0.708 µM)

**Q.** And the “MIC Coagulase Negative Staphylococcus (GC 6257)” value (Staphylococcus sp.; strain GC 6257)?
**A.** 0.5 µg/mL (≈ 0.354 µM)

**Q.** What about the “MIC Streptococcus agalactiae (GC 4564)” value (Streptococcus sp.) of the same molecule?
**A.** <0.06 µg/mL

**Q.** What about the “MIC Streptococcus pneumoniae (ATCC 6301)” value (Streptococcus sp.) of the same molecule?
**A.** 0.25 µg/mL (≈ 0.177 µM)

**Q.** What about the “MIC Streptococcus pneumoniae (GC 1894)” value (Streptococcus sp.) of the same molecule?
**A.** 0.12 µg/mL (≈ 0.085 µM)

**Q.** What about the “MIC Streptococcus pneumoniae (GC 4565)” value (Streptococcus sp.) of the same molecule?
**A.** <0.06 µg/mL

**Q.** What about the “MIC Streptococcus pyogenes (GC 4563)” value (Streptococcus sp.) of the same molecule?
**A.** <0.06 µg/mL

**Q.** What about the “MIC Streptococcus pneumoniae (ATCC 6301)” value (Streptococcus sp.; inoculum 5×10^5 CFU/mL, strain ATCC 6301) of the same molecule?
**A.** 0.25 µg/mL (≈ 0.177 µM)

**Q.** What about the “MIC Streptococcus pneumoniae (GC 1894)” value (Streptococcus sp.; inoculum 5×10^5 CFU/mL, strain GC 1894) of the same molecule?
**A.** 0.12 µg/mL (≈ 0.085 µM)

**Q.** And the “MIC Streptococcus pyogenes (GC 4563)” value (Streptococcus sp.; inoculum 5×10^5 CFU/mL, strain GC 4563)?
**A.** <0.06 µg/mL

**Q.** And the “MIC Streptococcus agalactiae (GC 4564)” value (Streptococcus sp.; inoculum 5×10^5 CFU/mL, strain GC 4564)?
**A.** <0.06 µg/mL

**Q.** What about the “MIC Streptococcus pneumoniae (GC 4565)” value (Streptococcus sp.; inoculum 5×10^5 CFU/mL, strain GC 4565) of the same molecule?
**A.** <0.06 µg/mL

**Q.** What about the “MIC Escherichia coli (GC 4559)” value (Escherichia coli) of the same molecule?
**A.** 32 µg/mL (≈ 22.7 µM)

**Q.** And the “MIC Escherichia coli (GC 4560)” value (Escherichia coli)?
**A.** 2 µg/mL (≈ 1.42 µM)
